In data set [1] the target is Nitric oxide synthase, inducible (Homo sapiens, UniProt P35228). As to the kind of experiment: Inhibition of human iNOS expressed in HEK293 cells assessed as NO production by 2,3-diaminonapthalene-based fluorescence assay. The data set is classed as cell-based.
The species entered for the next data set is Homo sapiens. As to the kind of experiment: Selectivity ratio of IC50 for human eNOS to IC50 for human iNOS.
For data set [2], the target named is Nitric oxide sythases; iNOS & nNOS (Homo sapiens) (UniProt P29475+P35228). As to the kind of experiment: Selectivity ratio of IC50 for human nNOS to IC50 for human iNOS.
Data set [3] in a line: Half life in mouse liver microsomes. The data set is classed as ADME, Microsome. A general note: Liver microsomes are a subcellular fraction often used to study metabolism.
The target of another data set is Nitric oxide synthase 1 (Homo sapiens, UniProt P29475). In words: Inhibition of human nNOS expressed in HEK293 cells assessed as NO production by 2,3-diaminonapthalene-based fluorescence assay. The data set is classed as cell-based.
A further data set has as its target T1, Nitric oxide synthase 3 (Homo sapiens, UniProt P29474).
T1 sequence (P29474 whole entry): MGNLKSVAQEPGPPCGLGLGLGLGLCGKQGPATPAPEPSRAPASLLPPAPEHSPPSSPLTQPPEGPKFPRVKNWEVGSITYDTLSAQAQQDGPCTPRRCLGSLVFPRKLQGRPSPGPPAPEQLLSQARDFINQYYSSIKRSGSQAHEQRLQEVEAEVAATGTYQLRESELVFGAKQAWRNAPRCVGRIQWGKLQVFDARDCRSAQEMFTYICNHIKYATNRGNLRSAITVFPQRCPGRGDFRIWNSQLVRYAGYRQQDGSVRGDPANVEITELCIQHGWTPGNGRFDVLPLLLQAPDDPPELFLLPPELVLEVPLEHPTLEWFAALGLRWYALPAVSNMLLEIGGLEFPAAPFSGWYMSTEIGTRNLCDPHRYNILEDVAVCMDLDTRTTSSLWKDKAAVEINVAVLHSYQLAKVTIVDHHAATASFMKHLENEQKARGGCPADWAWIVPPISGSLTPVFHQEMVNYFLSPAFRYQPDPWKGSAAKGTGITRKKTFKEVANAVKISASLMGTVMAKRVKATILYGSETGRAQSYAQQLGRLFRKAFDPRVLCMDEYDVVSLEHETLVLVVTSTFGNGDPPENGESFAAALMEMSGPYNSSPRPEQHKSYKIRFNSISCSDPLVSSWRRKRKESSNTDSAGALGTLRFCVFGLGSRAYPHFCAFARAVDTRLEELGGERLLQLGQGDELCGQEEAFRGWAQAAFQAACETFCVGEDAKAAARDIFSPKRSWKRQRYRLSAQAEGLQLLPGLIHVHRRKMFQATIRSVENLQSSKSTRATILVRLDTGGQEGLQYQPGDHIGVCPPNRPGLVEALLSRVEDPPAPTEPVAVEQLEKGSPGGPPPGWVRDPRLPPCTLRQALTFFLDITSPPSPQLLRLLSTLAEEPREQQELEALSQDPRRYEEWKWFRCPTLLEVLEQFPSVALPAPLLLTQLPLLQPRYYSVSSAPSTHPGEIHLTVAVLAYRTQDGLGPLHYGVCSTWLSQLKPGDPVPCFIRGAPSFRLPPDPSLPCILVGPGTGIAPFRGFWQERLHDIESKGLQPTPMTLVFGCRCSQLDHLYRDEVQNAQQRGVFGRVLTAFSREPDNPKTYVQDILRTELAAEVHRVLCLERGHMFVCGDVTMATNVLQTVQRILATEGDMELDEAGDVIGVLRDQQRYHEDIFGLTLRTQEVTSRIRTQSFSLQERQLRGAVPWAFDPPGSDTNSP
As to the kind of experiment: Inhibition of human eNOS expressed in HEK293 cells assessed as NO production by 2,3-diaminonapthalene-based fluorescence assay. The data set is classed as cell-based.

For data set [4], the target named is T2, Nitric oxide synthase 3 (Homo sapiens) (UniProt P29474).
T2 sequence (whole entry): T1 sequence (P29474 whole entry)
As to the kind of experiment: Inhibition of human eNOS expressed in HEK293 cells assessed as NO production at 30 uM by 2,3-diaminonapthalene-based fluorescence assay. The data set is classed as cell-based.

The test system of a further data set is Mus musculus. In words: Antiinflammatory activity in mouse assessed as reduction in LPS-induced nitatre level in plasma at 30 mg/kg, po. The data set is classed as functional. The arrangement: scale not given: the % may be the effect or the level left.

Where only a bound is given, the exact number is not on record here.

In general, IC50 refers to the concentration at which inhibition is half-maximal. The half-life is how long it takes for the measured level to halve. In general, inhibition refers to how much of the control response was suppressed.

Chain of Nitric oxide synthase, inducible (P35228 whole entry): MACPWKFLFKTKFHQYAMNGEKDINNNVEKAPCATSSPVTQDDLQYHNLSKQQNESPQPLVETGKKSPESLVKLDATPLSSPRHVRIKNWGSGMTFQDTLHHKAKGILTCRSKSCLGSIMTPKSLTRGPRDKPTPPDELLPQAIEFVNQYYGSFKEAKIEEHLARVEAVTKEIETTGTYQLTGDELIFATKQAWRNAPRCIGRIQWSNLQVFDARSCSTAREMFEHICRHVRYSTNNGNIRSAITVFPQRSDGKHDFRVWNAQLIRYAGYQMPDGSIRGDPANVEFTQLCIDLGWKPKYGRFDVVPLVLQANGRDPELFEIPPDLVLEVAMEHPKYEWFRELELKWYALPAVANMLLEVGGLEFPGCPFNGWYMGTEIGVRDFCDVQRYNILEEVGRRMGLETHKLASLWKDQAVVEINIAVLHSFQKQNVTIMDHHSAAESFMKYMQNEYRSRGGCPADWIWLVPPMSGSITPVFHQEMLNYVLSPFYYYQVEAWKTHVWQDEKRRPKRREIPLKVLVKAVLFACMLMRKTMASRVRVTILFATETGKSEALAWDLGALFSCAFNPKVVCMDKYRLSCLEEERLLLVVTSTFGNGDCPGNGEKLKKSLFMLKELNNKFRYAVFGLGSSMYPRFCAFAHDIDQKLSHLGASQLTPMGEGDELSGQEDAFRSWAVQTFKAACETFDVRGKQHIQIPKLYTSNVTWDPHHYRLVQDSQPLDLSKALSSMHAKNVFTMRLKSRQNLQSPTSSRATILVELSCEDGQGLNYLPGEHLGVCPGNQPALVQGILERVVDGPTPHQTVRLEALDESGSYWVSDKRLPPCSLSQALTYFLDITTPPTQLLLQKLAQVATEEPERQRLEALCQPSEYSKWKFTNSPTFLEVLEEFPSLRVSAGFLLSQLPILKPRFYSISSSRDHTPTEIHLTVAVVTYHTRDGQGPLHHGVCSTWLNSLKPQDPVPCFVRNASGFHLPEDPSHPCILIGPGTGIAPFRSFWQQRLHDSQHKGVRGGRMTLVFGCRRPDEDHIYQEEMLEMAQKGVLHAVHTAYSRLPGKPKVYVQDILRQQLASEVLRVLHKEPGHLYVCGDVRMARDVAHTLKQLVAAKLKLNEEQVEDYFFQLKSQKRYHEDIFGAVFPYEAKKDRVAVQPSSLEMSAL
Chain of Nitric oxide sythases; iNOS & nNOS (Homo sapiens) (P29475 whole entry, looked up): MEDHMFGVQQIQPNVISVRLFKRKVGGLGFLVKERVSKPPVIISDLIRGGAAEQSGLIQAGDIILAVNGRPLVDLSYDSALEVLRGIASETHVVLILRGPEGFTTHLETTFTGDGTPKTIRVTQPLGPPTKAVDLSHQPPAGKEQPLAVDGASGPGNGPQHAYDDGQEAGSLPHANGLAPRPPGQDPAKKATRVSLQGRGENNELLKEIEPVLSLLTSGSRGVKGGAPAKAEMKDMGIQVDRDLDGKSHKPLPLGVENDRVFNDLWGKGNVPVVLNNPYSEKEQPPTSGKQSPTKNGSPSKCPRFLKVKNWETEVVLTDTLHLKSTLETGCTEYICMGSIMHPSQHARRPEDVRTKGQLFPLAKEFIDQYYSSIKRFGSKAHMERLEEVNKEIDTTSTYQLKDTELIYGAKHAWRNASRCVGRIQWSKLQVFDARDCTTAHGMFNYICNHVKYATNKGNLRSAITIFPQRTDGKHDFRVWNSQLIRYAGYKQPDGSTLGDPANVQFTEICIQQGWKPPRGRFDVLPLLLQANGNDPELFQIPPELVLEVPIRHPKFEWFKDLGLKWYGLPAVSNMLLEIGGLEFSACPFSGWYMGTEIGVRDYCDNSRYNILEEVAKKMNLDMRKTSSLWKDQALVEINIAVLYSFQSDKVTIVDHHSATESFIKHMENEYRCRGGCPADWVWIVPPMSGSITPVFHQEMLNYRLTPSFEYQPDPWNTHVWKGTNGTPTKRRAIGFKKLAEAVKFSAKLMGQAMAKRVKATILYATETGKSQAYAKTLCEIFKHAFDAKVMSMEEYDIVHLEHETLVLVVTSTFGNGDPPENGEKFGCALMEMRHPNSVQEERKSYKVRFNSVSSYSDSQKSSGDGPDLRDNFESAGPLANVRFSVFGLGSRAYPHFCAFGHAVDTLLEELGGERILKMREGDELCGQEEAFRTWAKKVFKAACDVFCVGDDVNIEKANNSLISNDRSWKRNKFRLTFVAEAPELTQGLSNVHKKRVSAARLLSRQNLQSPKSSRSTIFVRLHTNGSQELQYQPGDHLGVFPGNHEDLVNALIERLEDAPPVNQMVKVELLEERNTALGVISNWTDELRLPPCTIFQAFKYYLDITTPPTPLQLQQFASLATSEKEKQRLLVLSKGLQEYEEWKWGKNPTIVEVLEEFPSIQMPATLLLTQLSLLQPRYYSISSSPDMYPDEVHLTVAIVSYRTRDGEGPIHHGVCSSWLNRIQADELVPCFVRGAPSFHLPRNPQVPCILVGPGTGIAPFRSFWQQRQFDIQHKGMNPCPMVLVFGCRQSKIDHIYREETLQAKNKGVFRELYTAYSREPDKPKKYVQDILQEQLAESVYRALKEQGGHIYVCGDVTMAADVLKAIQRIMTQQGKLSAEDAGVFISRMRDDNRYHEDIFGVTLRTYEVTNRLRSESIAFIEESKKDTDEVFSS
Chain of Nitric oxide sythases; iNOS & nNOS (Homo sapiens) (P35228 whole entry, looked up): as the sequence (P35228 whole entry) above
Chain of Nitric oxide synthase 1 (P29475 whole entry): as the sequence (P29475 whole entry, looked up) above

For `[O-][n+]1cc(CN(c2cccc(Cl)c2)c2ncccn2)c2ccc(F)c(F)c2c1`, the concentration for half-maximal inhibition (IC50) in data set [1] was 17 nM. Further, the results for the Ratio IC50 (in the data set filed under Homo sapiens; in data set [2]) were above 1000 and 9, respectively.
`Cn1ncc2c(N(Cc3cc(=O)[nH]c4c(F)c(F)ccc34)c3cccc(Cl)c3)ncnc21` yielded a half-life in data set [3] below 30 min. Moreover, the IC50 turned out to be 62 nM at Nitric oxide synthase 1, 11 nM in data set [1] and 8300 nM at Nitric oxide synthase 3. In the data set filed under Homo sapiens, the Ratio IC50 stood at 730.
With `Cc1cc(N(Cc2cc(=O)[nH]c3c(F)c(F)ccc23)c2cccc(Cl)c2)ncn1`, the results for the concentration for half-maximal inhibition (IC50) (on Nitric oxide synthase 1; in data set [1]; at Nitric oxide synthase 3) were 160 nM, 53 nM and above 30000 nM, respectively. Also, the inhibition in data set [4] is below 50%. For the same compound, the Ratio IC50 in the data set filed under Homo sapiens is above 500; in data set [2], 3.
Consider `O=c1cc(CN(c2cccnc2)c2cccc(Cl)c2)c2ccc(F)c(F)c2[nH]1`, for which the results for the half-inhibitory concentration (IC50) (on Nitric oxide synthase 1; in data set [1]; at Nitric oxide synthase 3) were 370 nM, 77 nM and 14000 nM, respectively. The Ratio IC50 came out at 180 in the data set filed under Homo sapiens and 5 in data set [2].
For `O=c1cc(CN(Cc2ccccc2F)c2cnccn2)c2ccc(F)c(F)c2[nH]1` the same measures were 64 nM, 12 nM, 11000 nM, 900 and 5.
With `O=c1cc(CN(c2cccc(Cl)c2)c2ccccn2)c2ccc(F)c(F)c2[nH]1`, the IC50 at Nitric oxide synthase 1 is 170 nM; in data set [1] it was 31 nM; on Nitric oxide synthase 3, above 30000 nM. Also, in data set [4], the inhibition is below 50%. The Ratio IC50 in the data set listed under Homo sapiens was above 1000; in data set [2] it was 5.
For `Fc1ccc2c(CN(c3cccc(Cl)c3)c3ncccn3)cncc2c1F`, in data set [1], the IC50 came to 200 nM. Also, the Ratio IC50 in the data set filed under Homo sapiens is above 1000.
For `CN(C)c1cc(N(Cc2cc(=O)[nH]c3c(F)c(F)ccc23)c2cccc(Cl)c2)ncn1`, the IC50 was 500 nM on Nitric oxide synthase 1, 28 nM in data set [1] and above 30000 nM on Nitric oxide synthase 3. Besides, the inhibition in data set [4] was below 50%. In addition, the Ratio IC50 is above 1000 in the data set filed under Homo sapiens and 20 in data set [2].
As for `CN(C)c1nccc(N(Cc2cc(=O)[nH]c3c(F)c(F)ccc23)c2cccc(Cl)c2)n1`, the IC50 in data set [1] is 1300 nM; at Nitric oxide synthase 3, above 30000 nM. For the same compound, the inhibition in data set [4] is below 50%. The Ratio IC50 in the data set listed under Homo sapiens was above 20.
`O=c1cc(CN(c2ccccc2)c2cccc(Cl)c2)c2ccc(F)c(F)c2[nH]1`: the figures for the concentration for half-maximal inhibition (IC50) (in data set [1]; at Nitric oxide synthase 3) were 1500 nM and above 30000 nM, respectively. Besides, the inhibition in data set [4] was below 50%. The Ratio IC50 in the data set listed under Homo sapiens is above 20.
In the case of `Cc1ccccc1CN(Cc1cc(=O)[nH]c2c(F)c(F)ccc12)c1cnccn1`, the IC50 at Nitric oxide synthase 1 was 46 nM; in data set [1], 10 nM; at Nitric oxide synthase 3, 13000 nM. The figures for the Ratio IC50 (in the data set listed under Homo sapiens; in data set [2]) were 1300 and 5, respectively.
The like results for `O=c1cc(CN(Cc2ccccc2Cl)c2cnccn2)c2ccc(F)c(F)c2[nH]1` were, in that order, 60 nM, 12 nM, 12000 nM, 1000 and 5.
In the case of `O=c1cc(CN(c2cncnc2)c2cccc(Cl)c2)c2ccc(F)c(F)c2[nH]1`, the IC50 at Nitric oxide synthase 1 was 1600 nM; in data set [1], 210 nM; on Nitric oxide synthase 3, 79000 nM. Further, the Ratio IC50 in the data set listed under Homo sapiens was found to be 375; in data set [2], 8.
In the case of `O=c1cc(CN(Cc2ccccn2)c2cnccn2)c2ccc(F)c(F)c2[nH]1`, the half-life in data set [3] is below 20 min. The IC50 stood at 440 nM on Nitric oxide synthase 1, 78 nM in data set [1] and 11000 nM at Nitric oxide synthase 3. Also, the Ratio IC50 turned out to be 140 in the data set listed under Homo sapiens and 6 in data set [2].
In data set [3], `O=c1cc(CN(Cc2ccc(Cl)cc2)c2cnccn2)c2ccc(F)c(F)c2[nH]1` returned a half-life below 20 min. In addition, the figures for the IC50 (at Nitric oxide synthase 1; in data set [1]; on Nitric oxide synthase 3) were 120 nM, 77 nM and 7100 nM, respectively. Moreover, the values for the Ratio IC50 (in the data set listed under Homo sapiens; in data set [2]) were 90 and 2, respectively.
For the compound `O=c1cc(CN(c2ccncc2)c2cccc(Cl)c2)c2ccc(F)c(F)c2[nH]1`, the IC50 amounted to 240 nM on Nitric oxide synthase 1, 130 nM in data set [1] and 23000 nM on Nitric oxide synthase 3. Further, the values for the Ratio IC50 (in the data set listed under Homo sapiens; in data set [2]) were 170 and 2, respectively.
On to `Cc1nccc(N(Cc2cc(=O)[nH]c3c(F)c(F)ccc23)c2cccc(Cl)c2)n1`, for which the half-life in data set [3] is 90 min. Further, the figures for the IC50 (on Nitric oxide synthase 1; in data set [1]; on Nitric oxide synthase 3) were 213 nM, 33 nM and 7500 nM, respectively. Also, in the data set with Mus musculus, the Activity was found to be 55%. Also, the values for the Ratio IC50 (in the data set filed under Homo sapiens; in data set [2]) were 230 and 7, respectively.
`O=c1cc(CN(c2cccc(Cl)c2)c2ncccn2)c2ccc(F)c(F)c2[nH]1`: the half-inhibitory concentration (IC50) on Nitric oxide synthase 1 was determined as 69 nM; in data set [1] it was 13 nM; on Nitric oxide synthase 3, 5500 nM. The Ratio IC50 in the data set filed under Homo sapiens came out at 425; in data set [2] it was 5.
Consider `O=c1cc(CN(Cc2ccccc2)c2cnccn2)c2ccc(F)c(F)c2[nH]1`, for which the IC50 on Nitric oxide synthase 1 stood at 100 nM; in data set [1], 13 nM; on Nitric oxide synthase 3, 6400 nM. In addition, the Ratio IC50 in the data set listed under Homo sapiens is 500; in data set [2], 8.
Consider `Cc1cccnc1N(Cc1cc(=O)[nH]c2c(F)c(F)ccc12)c1cccc(Cl)c1`, for which the IC50 in data set [1] was 350 nM; on Nitric oxide synthase 3 it was above 30000 nM. Besides, the inhibition in data set [4] is below 50%. Also, in the data set filed under Homo sapiens, the Ratio IC50 is above 85.
In data set [3], `O=c1cc(CN(Cc2cccc(Cl)c2)c2cnccn2)c2ccc(F)c(F)c2[nH]1` came in with a half-life below 20 min. The 50% inhibitory concentration (IC50) turned out to be 330 nM on Nitric oxide synthase 1, 220 nM in data set [1] and 8300 nM at Nitric oxide synthase 3. In addition, the Ratio IC50 in the data set filed under Homo sapiens is 40; in data set [2], 2.
`O=c1cc(CN(c2cccc(Cl)c2)c2cccnn2)c2ccc(F)c(F)c2[nH]1`: the figures for the half-inhibitory concentration (IC50) (at Nitric oxide synthase 1; in data set [1]; on Nitric oxide synthase 3) were 360 nM, 43 nM and 21000 nM, respectively. The results for the Ratio IC50 (in the data set filed under Homo sapiens; in data set [2]) were 500 and 8, respectively.
With `O=c1cc(CN(c2cccc(Cl)c2)c2ccncn2)c2ccc(F)c(F)c2[nH]1`, the IC50 on Nitric oxide synthase 1 stood at 150 nM; in data set [1] it was 14 nM; at Nitric oxide synthase 3, 13000 nM. In addition, the Ratio IC50 in the data set filed under Homo sapiens was determined as 1000; in data set [2], 11.
For `COc1cc(N(Cc2cc(=O)[nH]c3c(F)c(F)ccc23)c2cccc(Cl)c2)ncn1`, the results for the IC50 (at Nitric oxide synthase 1; in data set [1]; on Nitric oxide synthase 3) were 130 nM, 61 nM and above 30000 nM, respectively. In addition, in data set [4], the inhibition was below 50%. For the same compound, the Ratio IC50 in the data set listed under Homo sapiens was above 500; in data set [2], 2.

The record behind these values is ChEMBL document CHEMBL1944593, “Heteroaromatic-aminomethyl quinolones: potent and selective iNOS inhibitors” (Bioorg Med Chem Lett, 2012).
